In ChEMBL document CHEMBL3045299, “Chromano-analogs of Insecticidal Neolignans of the 1,4-Benzodioxane Type” (1993):

Test system: Musca domestica
Test: Insecticidal activity against Musca domestica (house fly) assessed as mortality per fly pretreated with piperonyl butoxide measured after 24 hr
Assay type: functional

Structure (SMILES) | LD50
COCC1Cc2cc([C@H]3OC[C@]4(O)[C@@H](Oc5c(OC)cccc5OC)OC[C@H]34)c(OC)cc2OC1c1ccc2c(c1)OCO2 (mixture of isomers) | 1 µg
COCC1Cc2cc([C@@H]3OC[C@]4(O)[C@@H](Oc5c(OC)cccc5OC)OC[C@H]34)c(OC)cc2OC1c1ccc2c(c1)OCO2 (mixture of isomers) | >10 µg
COCC1Oc2cc([C@H]3OC[C@]4(O)[C@@H](Oc5c(OC)cccc5OC)OC[C@H]34)c(OC)cc2CC1c1ccc2c(c1)OCO2 (mixture of isomers) | 0.005 µg
COCC1Oc2cc([C@H]3OC[C@]4(O)[C@@H](Oc5ccc6c(c5)OCO6)OC[C@H]34)c(OC)cc2OC1c1ccc2c(c1)OCO2 (mixture of isomers) | 0.18 µg
COC[C@@H]1Oc2cc([C@H]3OC[C@]4(O)[C@@H](Oc5ccc6c(c5)OCO6)OC[C@H]34)c(OC)cc2O[C@H]1c1ccc2c(c1)OCO2 (racemic) | >5 µg
COC[C@H]1Oc2cc([C@H]3OC[C@]4(O)[C@@H](Oc5c(OC)cc6c(c5OC)OCO6)OC[C@H]34)c(OC)cc2O[C@@H]1c1ccc2c(c1)OCO2 (racemic) [(+)-HAEDOXAN A] | 0.00025 µg
COC[C@H]1Oc2cc([C@H]3OC[C@]4(O)[C@@H](Oc5ccc6c(c5)OCO6)OC[C@H]34)c(OC)cc2O[C@@H]1c1ccc2c(c1)OCO2 (racemic) [(+)-HAEDOXAN E] | 0.1 µg
COC[C@H]1Oc2cc([C@H]3OC[C@]4(O)[C@@H](Oc5ccc6c(c5)OCO6)OC[C@H]34)c(OC)cc2O[C@@H]1c1ccc2c(c1)OCO2 [(+)-HAEDOXAN E] | 0.05 µg
